Earlier results as cited in US20030195171A1 (priority 2002, published 2003).

Key:
[1] = target: T1, vitamin D receptor (Homo sapiens, UniProt P11473); conditions: relative to 1α,25-dihydroxy-cholecalciferol
T1 sequence (P11473 1-427): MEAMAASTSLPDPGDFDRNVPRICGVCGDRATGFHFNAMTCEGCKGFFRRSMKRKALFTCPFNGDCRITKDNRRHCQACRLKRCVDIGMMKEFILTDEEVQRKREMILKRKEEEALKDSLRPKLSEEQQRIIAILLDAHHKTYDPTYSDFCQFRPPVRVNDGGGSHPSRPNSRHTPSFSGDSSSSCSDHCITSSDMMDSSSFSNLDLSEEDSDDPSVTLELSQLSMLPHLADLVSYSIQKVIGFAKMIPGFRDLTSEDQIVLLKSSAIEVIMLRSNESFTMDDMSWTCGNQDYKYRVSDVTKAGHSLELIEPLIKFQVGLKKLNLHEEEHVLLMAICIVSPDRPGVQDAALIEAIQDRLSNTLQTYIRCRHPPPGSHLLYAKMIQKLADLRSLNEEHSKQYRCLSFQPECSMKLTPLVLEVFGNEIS

[2] = compared to placebo

C=C1CC[C@H](O)C/C1=C/C=C1\CCC[C@]2(C)[C@@H]([C@H](C)CCCC(C)(C)O)CC[C@@H]12 [25-hydroxy-cholecalciferol]
Intrinsic activity, fold lower than that of 1α,25-dihydroxy-cholecalciferol [1]: about 100 fold

NCCCC(O)(P(=O)(O)O)P(=O)(O)O [alendronate, 4-Amino-1-hydroxybutylidene-1,1-bisphosphonic acid monosodium trihydrate]
Decrease in the risk of vertebral fractures ([2]; administered over a substantial period of time): at least 40%
Reduction in vertebral fracture rate per 100 patients ([2]; total number of vertebral fractures): at least 50%
